For one data set, the system named is normal mice. The experiment in a line: Acute hypoglycemic assay in normal mice. Format: in vivo. Particulars: 10 mg/kg of bw per os, 0h. The method, then: STZ-induced diabetic mice and normal mice were placed in single cages with wire-net floors and deprived of food for 12 h before experimentation but allowed free access to tap water throughout. The compounds (at the doses of 10, 30, and 100 mg/kg of bw) were suspended in 0.05% Tween-80 in saline solution. Glibenclamide (10 mg/kg of bw) was suspended in the same vehicle. The target compounds were freshly prepared immediately before experimentation and administered by the intragastrical route at the doses of 10 ml/kg of bw. Control mice received only the vehicle (0.05% Tween-80 in saline solution) by the same route. Blood glucose levels were measured at 0, 1.5, 3, 5, 7, and 9 h after drugs administration.
`Cc1ccccc1-c1cc2ccc(O)cc2oc1=O` [Compound 11, 7-Hydroxy-3-(2-methylphenyl)-coumarin] came in with a Blood glucose concentration of 10.0 ± 0.7 mM.

The data set is the same for the next values; noted with them: 10 mg/kg of bw per os, 1.5h.
Turning to `Cc1ccccc1-c1cc2ccc(O)cc2oc1=O` [Compound 11, 7-Hydroxy-3-(2-methylphenyl)-coumarin], the “% Variation of glycemia” value is “(−15.27) %” and the Blood glucose concentration is 9.1 ± 0.2 mM.

The data set is the same for the next values; noted with them: 10 mg/kg of bw per os, 3h.
With `Cc1ccccc1-c1cc2ccc(O)cc2oc1=O` [Compound 11, 7-Hydroxy-3-(2-methylphenyl)-coumarin], the “% Variation of glycemia” value is on record as “(−28.35) %” and the Blood glucose concentration is listed as 7.7 ± 0.6 mM.

The same data set, now with this note: 10 mg/kg of bw per os, 5h.
As for `Cc1ccccc1-c1cc2ccc(O)cc2oc1=O` [Compound 11, 7-Hydroxy-3-(2-methylphenyl)-coumarin], the “% Variation of glycemia” value is “(−38.01) %” and the Blood glucose concentration is 6.6 ± 0.5 mM.

The same data set, now with this note: 10 mg/kg of bw per os, 7h.
Take `Cc1ccccc1-c1cc2ccc(O)cc2oc1=O` [Compound 11, 7-Hydroxy-3-(2-methylphenyl)-coumarin]: the “% Variation of glycemia” value is “(−47.98) %” and the Blood glucose concentration is recorded as 5.6 ± 0.4 mM.

The data set is the same for the next values; noted with them: 10 mg/kg of bw per os, 9h.
With `Cc1ccccc1-c1cc2ccc(O)cc2oc1=O` [Compound 11, 7-Hydroxy-3-(2-methylphenyl)-coumarin], the “% Variation of glycemia” value is on record as “(−48.91) %” and the Blood glucose concentration is recorded as 5.5 ± 1.2 mM.

Staying with this data set, now noted: 30 mg/kg of bw per os, 0h.
`Cc1ccccc1-c1cc2ccc(O)cc2oc1=O` [Compound 11, 7-Hydroxy-3-(2-methylphenyl)-coumarin] registered a Blood glucose concentration of 10.2 ± 1.2 mM.

The same data set, now with this note: 30 mg/kg of bw per os, 1.5h.
For `Cc1ccccc1-c1cc2ccc(O)cc2oc1=O` [Compound 11, 7-Hydroxy-3-(2-methylphenyl)-coumarin], the “% Variation of glycemia” value was “(−13.62) %” and the Blood glucose concentration amounted to 8.7 ± 1.2 mM.

The data set is the same for the next values; noted with them: 30 mg/kg of bw per os, 3h.
In the case of `Cc1ccccc1-c1cc2ccc(O)cc2oc1=O` [Compound 11, 7-Hydroxy-3-(2-methylphenyl)-coumarin], the “% Variation of glycemia” value was “(−30.90) %” and the Blood glucose concentration came to 6.9 ± 1.1 mM.

Staying with this data set, now noted: 30 mg/kg of bw per os, 5h.
`Cc1ccccc1-c1cc2ccc(O)cc2oc1=O` [Compound 11, 7-Hydroxy-3-(2-methylphenyl)-coumarin]: the “% Variation of glycemia” value is listed as “(−40.86) %” and the Blood glucose concentration is reported as 5.9 ± 1.1 mM.

Staying with this data set, now noted: 30 mg/kg of bw per os, 7h.
As for `Cc1ccccc1-c1cc2ccc(O)cc2oc1=O` [Compound 11, 7-Hydroxy-3-(2-methylphenyl)-coumarin], the “% Variation of glycemia” value is recorded as “(−47.84) %” and the Blood glucose concentration was 5.2 ± 0.8 mM.

Still in this data set, the particulars now being: 30 mg/kg of bw per os, 9h.
Turning to `Cc1ccccc1-c1cc2ccc(O)cc2oc1=O` [Compound 11, 7-Hydroxy-3-(2-methylphenyl)-coumarin], the “% Variation of glycemia” value is recorded as “(−49.17) %” and the Blood glucose concentration is 5.1 ± 0.6 mM.

The data set is the same for the next values; noted with them: 100 mg/kg of bw per os, 0h.
Compound `Cc1ccccc1-c1cc2ccc(O)cc2oc1=O` [Compound 11, 7-Hydroxy-3-(2-methylphenyl)-coumarin] gave a Blood glucose concentration of 10.4 ± 0.7 mM.

The data set is the same for the next values; noted with them: 100 mg/kg of bw per os, 1.5h.
Take `Cc1ccccc1-c1cc2ccc(O)cc2oc1=O` [Compound 11, 7-Hydroxy-3-(2-methylphenyl)-coumarin]: the “% Variation of glycemia” value is on record as “(−31.37) %” and the Blood glucose concentration came out at 7.0 ± 1.1 mM.

The same data set, now with this note: 100 mg/kg of bw per os, 3h.
In the case of `Cc1ccccc1-c1cc2ccc(O)cc2oc1=O` [Compound 11, 7-Hydroxy-3-(2-methylphenyl)-coumarin], the “% Variation of glycemia” value is recorded as “(−42.16) %” and the Blood glucose concentration came to 5.9 ± 0.6 mM.

Staying with this data set, now noted: 100 mg/kg of bw per os, 5h.
Turning to `Cc1ccccc1-c1cc2ccc(O)cc2oc1=O` [Compound 11, 7-Hydroxy-3-(2-methylphenyl)-coumarin], the “% Variation of glycemia” value is recorded as “(−52.94) %” and the Blood glucose concentration stood at 4.8 ± 1.3 mM.

Staying with this data set, now noted: 100 mg/kg of bw per os, 7h.
For the compound `Cc1ccccc1-c1cc2ccc(O)cc2oc1=O` [Compound 11, 7-Hydroxy-3-(2-methylphenyl)-coumarin], the “% Variation of glycemia” value was “(−54.25) %” and the Blood glucose concentration was 4.7 ± 0.4 mM.

The same data set, now with this note: 100 mg/kg of bw per os, 9h.
Turning to `Cc1ccccc1-c1cc2ccc(O)cc2oc1=O` [Compound 11, 7-Hydroxy-3-(2-methylphenyl)-coumarin], the “% Variation of glycemia” value is “(−58.17) %” and the Blood glucose concentration was 4.3 ± 0.3 mM.

Tested on in another data set: not listed separately
The experiment in a line: Oral toxicity to mice (Lorke's method). The note with it: both sexes, mouse, in vivo, Kunming mice, observed 14 days. The method, then:
With reference to Lorke’s method, kunming mice were used as targets to estimate the oral toxicity of each compound to mice. We select compounds 11, 17, 25, 28, and 35 at concentrations of 10, 100, and 1000 mg/kg to test their oral toxicity in the first phase, and 1600, 2900, and 5000 mg/kg at the second phase.
Experiments were performed on Kunming mice (male and female half, bw range, 25–30 g). Mice were housed in a climate and light controlled room with a 12 h light/dark cycle. Twelve hours before experiments, food was withheld, but animals had free access to drinking water. The compounds were suspended in vehicle (Tween-80, 0.2% in saline). The concentrations were adjusted to orally administrate 0.2 ml/10 g of bw. Mice were treated in two phases. In the first, intragastric doses of 10, 100 and 1000 mg/kg of bw of compounds were administered. On the second, the doses were adjusted to 1600, 2900, and 5000 mg/kg of bw of compounds. In both phases, mice were observed daily in a period of 14 days for mortality, toxic effects and/or changes in behavioural pattern. At the end of the experiments, the mice were sacrificed in a CO2 chamber.
A word on the LD50: it is the dose at which mortality reaches 50%. High values mean lower toxicity, low ones greater toxicity. With `Cc1ccc(-c2cc3c(O)cc(O)cc3oc2=O)cc1` [Compound 25, 5,7-Dihydroxy-3-(4-methylphenyl)-coumarin], the 50% lethal dose (LD50) at 14 days was over 5000 mg/kg.

`Cc1ccccc1-c1cc2ccc(O)cc2oc1=O` [Compound 11, 7-Hydroxy-3-(2-methylphenyl)-coumarin] came in with an LD50 at 14 days of over 5000 mg/kg.

Another data set deals with STZ-induced diabetic mice. The experiment in a line: Daily treatment for 16 days in STZ-induced diabetic mice. Format: in vivo. The note with it: 30 mg/kg of bw daily per os, 16 days. The method, then: Thereafter, the target compounds 11, 17, 35, and glibenclamide were administered once (9 a.m.) on a daily basis, for a period of 16 days, to STZ-induced diabetic mice which were divided into five groups (A-E). A six group of normal mice (Group F) was used as a control. Groups E (diabetic control) and F received vehicle (0.05% Tween-80 in saline solution) per os for 16 days. Group A received glibenclamide (10 mg/kg of bw daily). Groups B–D received different treatments: B, compound 11 (30 mg/kg of bw daily); C, compound 17 (30 mg/kg of bw daily); D, compound 35 (30 mg/kg of bw daily). All tested materials were suspended in the same vehicle and administered per os daily for 16 days. The animals were housed under standard laboratory conditions and maintained with free access to water and food during all the experiment. Blood glucose concentration on animals of diabetic (Groups A–E) and control group (Group F) was estimated at days 1, 4, 7, 10, 13, and 16. The bw of the animals were measured concomitantly to the blood glucose analyses. All experiments were carried out using six animals per group.
Turning to `Cc1ccccc1-c1cc2ccc(O)cc2oc1=O` [Compound 11, 7-Hydroxy-3-(2-methylphenyl)-coumarin], the “bw loss in hyperglycemic mice” value was “prevented bw loss”.

Staying with this data set, now noted: 30 mg/kg of bw oral, once a day, for 16 days.
Regarding `Cc1ccccc1-c1cc2ccc(O)cc2oc1=O` [Compound 11, 7-Hydroxy-3-(2-methylphenyl)-coumarin], the “long-term anti-hyperglycemic effect (blood glucose levels)” value was “less efficient in decreasing blood glucose levels”.

Tested on in the next data set: not listed separately
As to the kind of experiment: hydroxyl radical scavenging. Particulars: mean ± SD (n = 3), read-out: OH IC50 Value. Put shortly: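 Fenton system of H2O2 (0.03%), FeSO4 (2 mmol/L) and salicylic acid (10 mmol/L) with compound solutions (0.4–2.0 mg/mL), incubated 30 min at 37 °C. Absorbance read at 510 nm. % OH scavenging = [A0−(A1−A2)]/A0×100, with A2 a sample blank using ethanol in place of salicylic acid.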
What is called IC50 is the concentration needed to halve the response being measured. As for `Cc1ccc(-c2cc3c(O)cc(O)cc3oc2=O)cc1` [Compound 25, 5,7-Dihydroxy-3-(4-methylphenyl)-coumarin], the IC50 was over 1000 µM.

On to `Cc1ccccc1-c1cc2ccc(O)cc2oc1=O` [Compound 11, 7-Hydroxy-3-(2-methylphenyl)-coumarin], for which the IC50 was over 1000 µM.

For the origin of these results see article PMC6211316, “Synthesis and biological evaluation of 3-arylcoumarin derivatives as potential anti-diabetic agents” (Journal of Enzyme Inhibition and Medicinal Chemistry, 2018).
